Reference: patent publication US9708336B2, “Metallo-beta-lactamase inhibitors” (priority 2014, dated 2017)
Read-outs that look alike come from different tables or passages of the source.

Key:
[1] = biological target: NDM-1 (Klebsiella pneumoniae, UniProt C7C422); assay: biochemical; type: biochemical; settings: read-out: NDM-1 IC50
[2] = biological target: IMP-1 (Serratia marcescens, UniProt P52699); assay: biochemical; type: biochemical; settings: read-out: IMP-1 IC50
[3] = test system: Escherichia coli expressing NDM-1 (CLB30016); assay: Antibiotic potentiation activity: synergistic concentration (MITC95) with imipenem, OD600 growth; type: cell-based
How it was run: (§1)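 Test compound was combined with 4 μg/ml imipenem (or optionally 1 μg/ml), or with no antibiotic, against saline-suspended colonies diluted 1:100 in 1.1×CAMHB. Strains were E. coli NDM-1, S. marcescens IMP-1 and K. pneumoniae VIM-1. Plates were incubated 22–24 h at 35 °C before absorbance (OD600) readout.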

[4] = test system: Klebsiella pneumoniae expressing VIM-1 (IHMA599644); assay: as above; type: cell-based
How it was run: as §1

[5] = test system: Serratia marcescens expressing IMP-1 (CL5741); assay: as above; type: cell-based
How it was run: as §1

[6] = biological target: VIM-1 (Pseudomonas aeruginosa (strain ATCC 15692 / DSM 22644 / CIP 104116 / JCM 14847 / LMG 12228 / 1C / PRS 101 / PAO1), UniProt A0A0F7KYQ8); assay: Enzyme activity: determination of IC50, fluorescence assay with CCF2-FA substrate (VIM-1); type: biochemical; settings: read-out: VIM-1 IC50
[7] = NDM-1 enzyme, CCF2-FA fluorescence assay
[8] = IMP-1 enzyme, CCF2-FA fluorescence assay
[9] = Escherichia coli expressing NDM-1 (CLB30016), 95% growth inhibition
[10] = Klebsiella pneumoniae expressing VIM-1 (IHMA599644), 95% growth inhibition
[11] = Serratia marcescens expressing IMP-1 (CL5741), 95% growth inhibition
[12] = VIM-1 enzyme, CCF2-FA fluorescence assay
[13] = NDM-1 enzyme, CCF2-FA substrate
[14] = IMP-1 enzyme, CCF2-FA substrate
[15] = (CLB30016, NDM-1), 95% growth inhibition
[16] = Klebsiella pneumoniae IHMA599644 (VIM-1), 95% growth inhibition
[17] = Serratia marcescens CL5741 (IMP-1), 95% growth inhibition
[18] = VIM-1 enzyme, CCF2-FA substrate
[19] = fluorescence assay with CCF2-FA substrate
[20] = CLB30016 (NDM-1), 95% inhibition of bacterial growth
[21] = IHMA599644 (VIM-1), 95% inhibition of bacterial growth
[22] = CL5741 (IMP-1), 95% inhibition of bacterial growth
[23] = concentration giving 95% inhibition of bacterial growth

IMP-1, sequence (P52699 whole entry, looked up): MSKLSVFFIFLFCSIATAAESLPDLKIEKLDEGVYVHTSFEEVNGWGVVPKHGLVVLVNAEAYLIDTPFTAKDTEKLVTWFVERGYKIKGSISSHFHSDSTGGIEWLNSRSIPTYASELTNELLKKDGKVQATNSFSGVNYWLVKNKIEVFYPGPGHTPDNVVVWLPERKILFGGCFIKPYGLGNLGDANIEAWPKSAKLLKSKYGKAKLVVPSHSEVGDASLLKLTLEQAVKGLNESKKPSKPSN
NDM-1, sequence (C7C422 whole entry, looked up, species assumed): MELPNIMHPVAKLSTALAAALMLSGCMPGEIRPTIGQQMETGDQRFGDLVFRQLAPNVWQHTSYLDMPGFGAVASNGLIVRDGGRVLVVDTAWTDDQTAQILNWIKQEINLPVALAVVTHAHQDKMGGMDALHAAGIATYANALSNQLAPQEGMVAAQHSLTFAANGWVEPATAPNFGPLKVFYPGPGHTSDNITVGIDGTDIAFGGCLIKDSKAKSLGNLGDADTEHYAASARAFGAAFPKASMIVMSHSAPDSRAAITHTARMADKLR

Row | Compound | IC50 [1, 13] [µM] | IC50 [2, 14] [µM] | Escherichia coli MITC95 [3, 15] [µM] | Klebsiella pneumoniae MITC95 [4, 16] [µM] | Serratia marcescens MITC95 [5, 17] [µM] | IC50 [6, 18] [µM] | IC50 [1, 19] [µM] | IC50 [2, 19] [µM] | IC50 [6, 19] [µM] | also measured
1 | CN(CCO)Cc1ccc(-c2cccc(S(N)(=O)=O)c2-c2nnn[nH]2)cc1 [Example 335, 4′-(((2-hydroxyethyl)(methyl)amino)methyl)-2-(1H-tetrazol-5-yl)-[1,1′-biphenyl]-3-sulfonamide] | – | – | – | – | – | – | – | – | – | IC50 [1, 7]: 0.015 µM; IC50 [2, 8]: 0.228 µM; Escherichia coli MITC95 [3, 9]: 0.3906 µM; Klebsiella pneumoniae MITC95 [4, 10]: 25 µM; Serratia marcescens MITC95 [5, 11]: 3.125 µM; IC50 [6, 12]: 0.227 µM
2 | NCCC1CCC(N[C@H]2CC[C@H](c3ccc(C(F)(F)F)c(S(N)(=O)=O)c3-c3nnn[nH]3)CC2)CC1 (stereo partly drawn) [Example 693, 3-(4-{[4-(2-aminoethyl)cyclohexyl]a-mino}cyclohexyl)-2-(1H-tetrazol-5-yl)-6-(trifluoromethyl)benzene sulfonamide] | 0.0369 | 0.0978 | 3.125 | 12.5 | 6.25 | 0.0116 | – | – | – | –
3 | NC(=O)CCc1ccc(-c2cccc3sc(N)nc23)c(-c2nn[nH]n2)c1S(N)(=O)=O [Example 539, 3-(4-(2-Aminobenzo[d]thiazol-4-yl)-2-sulfamoyl-3-(2H-tetrazol-5-yl)phenyl)propanamide] | 0.000192 | 0.00762 | 3.125 | 25 | 12.5 | 0.00185 | – | – | – | –
4 | N=C(NC1CCNC1)c1ccc(-c2ccc(C(F)(F)F)c(S(N)(=O)=O)c2-c2nn[nH]n2)cc1 (stereo not drawn) [Example 564, N-(pyrrolidin-3-yl)-3′-sulfamoyl-2′-(2H-tetrazol-5-yl)-4′-(trifluoromethyl)biphenyl-4-carboximidamide] | 0.262 | 0.301 | 25 | 50 | 25 | 0.0363 | – | – | – | –
5 | NCC1COc2ccc(-c3ccc(C(F)(F)F)c(S(N)(=O)=O)c3-c3nnn[nH]3)cc21 (stereo not drawn) [Example 733, 3-[3-(aminomethyl)-2,3-dihydro-1-benzofuran-5-yl]-2-(1H-tetrazol-5-yl)-6-(trifluoromethyl)benzenesulfon-amide] | 0.0335 | 0.0343 | 12.5 | 6.25 | 25 | 0.00147 | – | – | – | –
6 | Nc1ccc(CCc2cccc(S(N)(=O)=O)c2-c2nn[nH]n2)cn1 [Example 427, 3-(2-(6-aminopyridin-3-yl)ethyl)-2-(2H-tetrazol-5-yl)benzenesulfonamide] | – | – | – | – | – | – | – | – | – | IC50 [1, 7]: 0.0298 µM; IC50 [2, 8]: 0.109 µM; Escherichia coli MITC95 [3, 9]: 0.25 µM; Klebsiella pneumoniae MITC95 [4, 10]: 75 µM; Serratia marcescens MITC95 [5, 11]: 4.688 µM; IC50 [6, 12]: 0.45 µM
7 | NC1(CNC2CCC(c3ccc(C(F)(F)F)c(S(N)(=O)=O)c3-c3nnn[nH]3)CC2)CC1 (stereo not drawn) [Example 830, 3-[4-[(1-aminocyclopropyl)methylamino]cyclohexyl]-2-(1H-tetrazol-5-yl)-6-(trifluoromethyl)benzenesulfonamide] | – | – | – | – | – | – | 0.00193 | 0.00382 | 0.000247 | Escherichia coli MITC95 [3, 20]: 0.25 µM; Klebsiella pneumoniae MITC95 [4, 21]: 0.8542 µM; Serratia marcescens MITC95 [5, 22]: 0.724 µM
8 | NS(=O)(=O)c1nccc(N2CCC(c3cnc4n3CCCC4)CC2)c1-c1nnn[nH]1 [Example 225, 4-[4-(5,6,7,8-tetrahydroimidazo[1,2-a]pyridin-3-yl)piperidin-1-yl]-3-(1H-tetrazol-5-yl)pyridine-2-sulfonamide] | – | – | – | – | – | – | 0.142 | 0.0762 | 0.226 | Escherichia coli expressing NDM-1 (CLB 30016) MITC95 [3, 23]: 9.375 µM; Klebsiella pneumoniae expressing VIM-1 (IHMA 599644) MITC95 [4, 23]: 50 µM; Serratia marcescens expressing IMP-1 (CL5741) MITC95 [5, 23]: 2.344 µM
9 | NC1Cc2cccc(-c3ccc(C(F)(F)F)c(S(N)(=O)=O)c3-c3nnn[nH]3)c2C1 (stereo not drawn) [Example 836, 3-(2-aminoindan-4-yl)-2-(1H-tetrazol-5-yl)-6-(trifluoromethyl)benzenesulfonamide] | – | – | – | – | – | – | 0.0549 | 0.134 | 0.00239 | Escherichia coli MITC95 [3, 20]: 2.344 µM; Klebsiella pneumoniae MITC95 [4, 21]: 1.563 µM; Serratia marcescens MITC95 [5, 22]: 4.688 µM
